# Experimental data: US6703413B2 (Rhode Island Hospital, priority 1999, dated 2004)
# Columns and labels:
# [1] = test system: Untransfected glioblastoma cells; test: Cytotoxicity in glioblastoma cells; type: cell-based, human; details: 1 μM
# From the text: (§1) The neoplastic cell lines used in the survey were standard tumor cell lines, e.g., PA1 human ovarian cell line, SKOV3 human ovarian cell line, HT29 human colon tumor cell line, DU145 human prostate tumor cell line, U251 human glioblastoma cell line, U251-MDR human glioblastoma cell line transfected with DNA encoding MDR, T98G human glioblastoma cell line, SP-1 human leukemia cell line, and Daudi human leukemia cell line.
# (§2) Glioblastoma cells were transfected with a gene encoding multiple drug resistance (MDR).
# [2] = test system: MDR-transfected glioblastoma cells; test: Cytotoxicity in drug resistant glioblastoma cells
# From the text: as §1, §2
# human cancer cell lines = test: Cytotoxic activity of taurultam in vitro; type: cell-based
# Method: The cytotoxic activity of taurultam was evaluated in vitro using the same human cancer cell lines as described above. […] The data also indicate that the cytotoxic effect is directly proportionate to the number of methylol molecules liberated per molecule of methylol-containing compound
Structure (SMILES),cytotoxicity [1],cytotoxicity ([2]; 1 μM),resistance of transfected cells ([2]; MDR-transfected versus untransfected),apoptotic death (human cancer cell lines; cancer cells versus normal control cells),cytotoxic activity relative to taurolidine (human cancer cell lines; of the activity observed with taurolidine)
COc1cccc2c1C(=O)c1c(O)c3c(c(O)c1C2=O)C[C@@](O)(C(=O)CO)C[C@@H]3O[C@H]1C[C@H](N)[C@H](O)[C@H](C)O1 [adriamycin],killed,resistant,100-1000 times,–,–
O=S1(=O)CCNCN1 [taurultam],–,–,–,induced apoptotic death of cancer cells but not normal control cells,approximately 75%
